Results on seven compounds are retold here after patent publication US20040110848A1, “Method and kit for treating cancer” (priority 2002, published 2004).

One assay relates to PC-3. Kind of assay: In vitro collagen gel contraction assay, PC-3. The format is cell-based, human. The conditions noted are these: for Diameter (cm) of collagen gel: PC-3, Perillyl Alcohol 400 μM, Genistein 20 μM, control 2.0. The protocol: (§1) An in vitro collagen gel contraction assay was used to evaluate the effects of isoprenoids on biomechanical tumor cell matrix remodeling from various prostate cancer cell lines. Collagen gel suspensions for each tumor cell line were prepared by mixing a 250 μl suspension of 3×10^6 cells/ml with 250 μl of undiluted rat tail collagen type I (BD Biosciences). The resultant collagen gel suspensions were dripped onto 35 mm petri dishes containing 3 ml RPMI 1640 in 10% FBS to prevent adhesion of collagen to the dish. Collagen gel suspensions were allowed to polymerize for one hr. Isoprenoid treatments were added 24 hr after exchanging culture medium and were removed 24-48 hr post treatment.
Table 4 summaries the effects on collagen gel ball diameters for both PC3 and DU145 as a result from being exposed to various isoprenoids during the in vitro collagen gel contraction assay.

For the next assay, the system named is MMP-9. Kind of assay: Gelatin zymography of conditioned media, MMP-9. The format is cell-based, human. Particulars: for MMP-9 Count: perillyl alcohol 400 μM, 16 hr. The text has this: (§2) Since the effects of isoprenoids with or without genistein on prostate cancer metastasis had not been explored prior to the present invention, the effects of genistein, perillyl alcohol, and γ-tocotrienol were studied on MMP-9 and MMP-2 activity. MMP activity as described in the background has been linked in part to the Ras/ERK pathway and may also be involved in a second unidentified pathway that is ERK-independent. Therefore, we employed gelatin zymography to study effects of isoprenoids on MMP-9 and MMP-2 activation and secretion.
(§3) Referring now to FIG. 8. which depicts a gelatin zymogram showing the effects of perillyl alcohol (PA), genistein (Gen), or γ-tocotrienol (g-Toco) on MMP activity. The results of FIG. 8 are quantified in Table 2. Cells were grown in 100 mm culture plates to approximately 80% confluency. Prior to experimental treatments, cells were washed extensively in serum-free medium and then incubated for […] in serum-free media with Mito plus® serum supplement (Becton-Dickinson) in the absence or presence of isoprenoids. Conditioned media were then collected from PC-3 and DU145 cells that were incubated in the absence or presence of genistein (20 μM), perillyl alcohol (400 μM), or γ-tocotrienol (20 μM) for 16 hr and clarified by centrifugation. MMP activity in conditioned media was analyzed by mixing aliquots with SDS sample loading buffer without β-mercaptoethanol (non-reducing). Samples were electrophoresed on a 10% polyacrylamide (29:1) separating gel containing 0.1% (w/v) gelatin. Gels were incubated in developing buffer at 37° C. overnight. Enzyme activity was observed after staining with Coomassie Blue as clear bands on a blue background of undigested gelatin. Band density was then normalized to cell number prior to- and post-treatment (See FIG. 8).

In the next assay the test system is DU145. The assay is described as follows: In vitro collagen gel contraction assay, DU145. Format: cell-based, human. Particulars: Perillyl Alcohol 400 μM, Genistein 20 μM, control 3.0. How it is done: as §1
The next assay has as its system MMP-2. The assay is described as follows: Gelatin zymography of conditioned media, MMP-2. The format is cell-based, human. The conditions noted are these: for MMP-2 Count: perillyl alcohol 400 μM, 16 hr.
Source text: as §2, §3

Assay [1] concerns androgen-responsive prostate tumor cell line LNCaP. The conditions noted are these: cited from earlier work.
The subject of another assay is 4E-BP1 (Ser65). The assay is described as follows: Western blot of phospho-4E-BP1 (Ser65) in prostate cancer cells. Format: cell-based, human. Particulars: both prostate cell lines (PC-3, DU145); perillyl alcohol 400 μM 16 hr, genistein 40 μM 4 hr, LY 294002 10 μM 4 hr. How it is done:
(§4) We treated PC-3, DU145, and Caco-2 (colon adenocarcinoma) cells with lovastatin (LVT), perillyl alcohol (PA), the P13 kinase inhibitor, LY294002 (LY), or genistein (Gen). PC-3, DU145, and Caco-2 cells were plated in RPMI plus 10% FBS and cells allowed to grow for 24 hr. Medium was supplemented with lovastatin (1 μM for 16 hr), perillyl alcohol (400 μM for 16 hr), genistein (40 μM for 4 hr), or LY 294002 (10 μM for 4 hr). Cells were lysed in RIPA buffer and protein extracts quantitated. Aliquots (100 μg) were electrophoresed and transferred to PVDF membranes. […] The eIF4E (FIG. 6, top panel) and 4E-BP1 (FIG. 6, middle panel) were detected using antibodies specific for eIF4E and phospho-4E-BP1 (Ser65). Specific proteins were detected by ECL using a Kodak Image Station.
(§5) Referring now to FIG. 6 which depicts a Western blot analysis of eIF4E, 4E-BP1 (Ser65) and Rab3A from various cells. […] The same blot was reprobed with phospho-4E-BP1 (Ser65). […] Rab3A levels were also compared in the highly metastatic PC-3 cells, DU145 and in Caco-2, which is considered to have low metastatic potential.

For assay [2], the system named is PC-3 prostate cancer cells. Kind of assay: Membrane Invasion Culture System (MICS). Format: cell-based, human. Particulars: for percent invaded: PC-3, 24 hr, MATRIGEL coated membrane, Perillyl Alcohol 400 μM, Genistein 20 μM, γ-tocotrienol 20 μM, control 12.5%; for invasive ability of PC-3 cells: PC-3, MICS. From the text:
The Membrane Invasion Culture System (MICS) represents a direct measurement of intracellular reorganization and invasive capability of cancer cell lines. The MICS protocol was used to quantitate the effects of isoprenoid treatment on the invasive potential of PC-3 prostate cancer cells. Polycarbonate membranes (10 μm pores) were coated with a basement membrane matrix (MATRIGEL™, BD Biosciences) and placed inside MICS chambers. Both upper and lower chambers were filled with serum-free RPMI 1640 containing Mito plus™. Cells were seeded onto the upper wells at 1×10^5 cells/well. After 24 hr, cells that had invaded through the membrane were collected and counted. Invasion rates were calculated as the percent cells invading the matrix coated membrane compared to total number of cells seeded (Table 3).

The subject of assay [3] is human prostate cancer cells. Particulars: human prostate cancer cells in culture; cited from earlier work.
For assay [4], the system named is HMG-CoA reductase. The assay is described as follows: HMG-CoA reductase degradation (half-life) in lovastatin-treated SV28 cells. The format is cell-based. The protocol: (§6) As discussed above, the end products of plant mevalonate metabolism, i.e., isoprenoids, suppress mammalian HMG-CoA reductase. To characterize the level at which plant-derived isoprenoids regulate reductase activity, lovastatin treated Syrian Hamster C100 cells were incubated with mevalonate or an isoprenoid (limonene, perillyl alcohol, or geraniol). These monoterpenes were selected because they are representative of isoprenoids found in a wide variety of plants, fruits and grains. C100 cells in which endogenous mevalonate biosynthesis is blocked with lovastatin have been a useful system to evaluate the effects of oxysterols and mevalonate-derived isoprenoids, either alone or in combination, on HMG-CoA reductase levels and rates of synthesis or degradation. […] The effects of the three isoprenoids on reductase degradation were also determined by measuring the half-life of HMG-CoA reductase.

The subject of assay [5] is HMG-CoA reductase. Kind of assay: Rate of HMG-CoA reductase synthesis (35S-labeled immunoprecipitable reductase) in lovastatin-treated C100 cells. Format: cell-based, Syrian Hamster. The conditions noted are these: for reductase synthesis lowered by: lovastatin treated C100 cells. The protocol:
as §6

The next assay concerns HMG-CoA reductase mRNA. Kind of assay: HMG-CoA reductase mRNA levels in lovastatin-treated C100 cells. Particulars: for reductase mRNA level lowered by / impact on HMG-CoA reductase mRNA levels: lovastatin treated C100 cells. Format: cell-based, Syrian Hamster. How it is done:
as §6

The next assay concerns Rab3A. The assay is described as follows: Western blot of Rab3A. The format is cell-based, human. Particulars: DU145 cells; perillyl alcohol 400 μM 16 hr. The protocol: as §4, §5
The mark [6] stands for this setting: DU145 conditioned media, genistein 20 μM (control 30.71), γ-tocotrienol 20 μM (control 23.5).
[7] abbreviates: PC-3 conditioned media, genistein 20 μM (control 46.95), γ-tocotrienol 20 μM (control 18.14).
Setting [8] is: DU145 conditioned media, genistein 20 μM (control 15.05), γ-tocotrienol 20 μM (control 5.5).
[9] abbreviates: PC-3 conditioned media, genistein 20 μM (control 11.85), γ-tocotrienol 20 μM (control 18.14).

Molecules are shown by their SMILES.

Regarding `O=c1c(-c2ccc(O)cc2)coc2cc(O)cc(O)c12` [Genistein, genistein], the entries for the “Diameter (cm) of collagen gel” value with PC-3 and with DU145 were 3.5 cm and 3.2 cm, respectively. For the same compound, the results for the “MMP-9 activity” value with MMP-9 (DU145 cells) and in the assay with MMP-9 (PC-3 cells) were “exhibited no similar effect” and “nearly ninety percent”, respectively. Also, the “MMP-9 Count” value is recorded as 47.64 in the assay with MMP-9 (setting [6]) and 5.25 in the assay with MMP-9 (setting [7]). For the same compound, the “MMP-2 Count” value with MMP-2 (setting [8]) turned out to be 23.54; in the assay on MMP-2 (setting [9]), 4.25. For the same compound, in assay [1], the “concentration shown to induce apoptosis” value was “above 20 μM”. In addition, the “4E-BP1 Ser65 phosphorylation (Western blot)” value in the assay on 4E-BP1 (Ser65) was “did not appear to affect Ser65 phosphorylation of the upper band but reduced phosphorylation of the lower of the two bands”. Besides, the percent invaded in [2] was determined as 0%. Besides, the “invasive ability of PC-3 cells” value in [2] is “inhibited the invasive ability of PC-3 cells, with genistein exhibiting the greatest effect”. Moreover, the concentration inhibiting growth entry in [3] is reported as “above 50 μmol”.
Take `CC(C)=CCC/C(C)=C/CO` [Geraniol, geraniol]: the “effect on half-life of reductase” value with HMG-CoA reductase [4] was “Neither limonene nor geraniol affected the half-life”. The “reductase synthesis lowered by” value with HMG-CoA reductase [5] is given as 98%. In addition, the “reductase mRNA level lowered by” value with HMG-CoA reductase mRNA was found to be 64%.
Turning to `CC[C@H](C)C(=O)O[C@H]1C[C@@H](C)C=C2C=C[C@H](C)[C@H](CC[C@@H]3C[C@@H](O)CC(=O)O3)[C@H]21` [Lovastatin, lovastatin, reference compound], the “Rate of Synthesis (reductase)” value in the assay with HMG-CoA reductase [5] (percentage (mean ± S.D.) of lovastatin-treated C100 cells set at 100%, 1 hr 35S labeling, mevalonate 10 mM, limonene 5 mM, perillyl alcohol 0.7 mM, geraniol 0.4 mM) is on record as 100 ± 15%. Besides, the “mRNA Levels (reductase)” value with HMG-CoA reductase mRNA (percentage of lovastatin-treated cells set at 100%, corrected to RP S17 mRNA, mevalonate 10 mM, limonene 5 mM, perillyl alcohol 0.7 mM, geraniol 0.4 mM) was 100 ± 5%.
Turning to `CC(O)(CCO)CC(=O)O` (stereo not shown) [Mevalonate, mevalonate, reference compound], in the assay on HMG-CoA reductase [4], the “HMG-CoA reductase half-life decreased by” value was “approximately 60%”. Further, in the assay on HMG-CoA reductase [5], the “reductase synthesis lowered by” value is on record as 65%. In addition, in the assay with HMG-CoA reductase mRNA, the “reductase mRNA level lowered by” value is 65%.
Take `C=C(C)[C@@H]1CC=C(CO)CC1` [Perillyl Alcohol, perillyl alcohol]: the “Rab3A protein level (Western blot)” value in the assay on Rab3A is given as “further reduce the levels of Rab3A protein”. Besides, the “extracellular matrix remodeling of gel ball” value in the assay with PC-3 (PC3 cells, FIG. 9) was “retards matrix remodeling”. Besides, the “Diameter (cm) of collagen gel” value in the assay on PC-3 is 3.2 cm; in the assay on DU145, 3.75 cm. Besides, the “MMP-9 activity” value with MMP-9 (DU145 cells) is recorded as “nearly extinguished all MMP-9 activity”; in the assay on MMP-9 (PC-3 cells) it was “exhibited no similar effect”. Moreover, the figures for the “MMP-9 Count” value in the assay on MMP-9 (setting [6]) and in the assay on MMP-9 (setting [7]) were 0.09 and 72.65, respectively. In addition, the “MMP-2 Count” value in the assay on MMP-2 (setting [8]) is 10.63; in the assay with MMP-2 (setting [9]), 6.73. Also, the “4E-BP1 Ser65 phosphorylation (Western blot)” value with 4E-BP1 (Ser65) is “reduced Ser65 phosphorylation”. The compound also gave a percent invaded in assay [2] of 5%. Moreover, the “invasive ability of PC-3 cells” value in assay [2] is listed as “inhibited the invasive ability”. Moreover, the “reductase synthesis lowered by” value with HMG-CoA reductase [5] was 89%. In the assay with HMG-CoA reductase mRNA, the “impact on HMG-CoA reductase mRNA levels” value was “neither limonene nor perillyl alcohol had a significant impact”.
With `C=C(C)[C@H]1CC=C(C)CC1` [limonene], the “effect on half-life of reductase” value with HMG-CoA reductase [4] is recorded as “Neither limonene nor geraniol affected the half-life”. Further, the “reductase synthesis lowered by” value in the assay with HMG-CoA reductase [5] turned out to be 70%. The “impact on HMG-CoA reductase mRNA levels” value in the assay with HMG-CoA reductase mRNA is “neither limonene nor perillyl alcohol had a significant impact”.
Consider `CC(C)=CCC/C(C)=C/CC/C(C)=C/CC[C@]1(C)CCc2cc(O)c(C)c(C)c2O1` [γ-tocotrienol], for which the “MMP-9 activity” value with MMP-9 (DU145 cells) and in the assay with MMP-9 (PC-3 cells) was “modest monotonic decreases” in each case. Also, the “MMP-9 Count” value in the assay with MMP-9 (setting [6]) was found to be 16.5; in the assay with MMP-9 (setting [7]), 27.4. The “MMP-2 activity” value in the assay with MMP-2 (DU145 cells) and in the assay on MMP-2 (PC-3 cells) was “modest monotonic decreases” throughout. The entries for the “MMP-2 Count” value in the assay with MMP-2 (setting [8]) and in the assay on MMP-2 (setting [9]) were −2.2 and 15.3, respectively. The same compound had a percent invaded in assay [2] of 7%. Besides, the “invasive ability of PC-3 cells” value in [2] is “inhibited the invasive ability”.
